Measurements taken from paper PMC3792216 (Biomolecules & Therapeutics, 2012).

Key:
[1] = molecular target: estrogen receptor beta (hERβ) (Homo sapiens, UniProt Q92731); experiment: competitive displacement of [3H]-E2 radioligand, filter binding
[2] = molecular target: estrogen receptor alpha (hERα) (Homo sapiens, UniProt P03372); experiment: as above
Sequence of estrogen receptor alpha (hERα) (P03372 whole entry): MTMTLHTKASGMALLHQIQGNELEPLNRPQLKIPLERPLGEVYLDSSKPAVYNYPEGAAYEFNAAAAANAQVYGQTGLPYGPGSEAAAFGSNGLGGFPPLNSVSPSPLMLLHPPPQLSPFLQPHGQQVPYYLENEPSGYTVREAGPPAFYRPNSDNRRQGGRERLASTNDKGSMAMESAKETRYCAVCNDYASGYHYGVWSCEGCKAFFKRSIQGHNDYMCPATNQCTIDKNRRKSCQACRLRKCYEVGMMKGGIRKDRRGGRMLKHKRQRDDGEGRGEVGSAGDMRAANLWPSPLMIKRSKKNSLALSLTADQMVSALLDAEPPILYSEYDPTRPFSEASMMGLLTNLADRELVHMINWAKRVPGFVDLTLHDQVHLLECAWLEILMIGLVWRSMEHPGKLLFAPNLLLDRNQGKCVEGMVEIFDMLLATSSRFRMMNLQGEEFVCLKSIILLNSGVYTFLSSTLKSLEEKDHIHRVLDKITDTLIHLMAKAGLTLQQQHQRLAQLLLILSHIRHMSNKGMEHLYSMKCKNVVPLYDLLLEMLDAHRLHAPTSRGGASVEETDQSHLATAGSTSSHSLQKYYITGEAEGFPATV

Sequence of estrogen receptor beta (hERβ) (Q92731 whole entry): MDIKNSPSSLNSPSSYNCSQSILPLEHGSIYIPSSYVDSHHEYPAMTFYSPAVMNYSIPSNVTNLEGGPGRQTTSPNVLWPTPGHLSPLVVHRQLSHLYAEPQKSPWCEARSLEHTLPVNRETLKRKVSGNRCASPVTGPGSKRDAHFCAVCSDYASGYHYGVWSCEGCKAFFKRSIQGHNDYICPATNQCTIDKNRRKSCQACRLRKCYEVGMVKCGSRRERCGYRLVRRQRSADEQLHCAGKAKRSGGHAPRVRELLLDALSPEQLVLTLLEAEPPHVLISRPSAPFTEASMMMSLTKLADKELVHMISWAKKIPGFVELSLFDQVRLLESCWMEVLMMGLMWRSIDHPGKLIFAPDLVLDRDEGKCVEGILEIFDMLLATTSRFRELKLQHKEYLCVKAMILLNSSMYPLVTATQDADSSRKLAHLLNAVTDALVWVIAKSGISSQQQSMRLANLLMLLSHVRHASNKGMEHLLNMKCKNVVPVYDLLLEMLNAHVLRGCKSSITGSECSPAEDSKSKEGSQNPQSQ

- IC50 [1]: 38 µM
- IC50 [2]: 65.7 µM
SMILES: CC(C)=CCc1cc2c(cc1O)O[C@H](c1ccc(O)cc1)CC2=O [bavachin]
